From US6699969B1, “Assays for the detection of microtubule depolymerization inhibitors” (The Regents of the University of California, priority 1998, dated 2004) come the findings set out here.

The assay concerns MSU1.1 human fibroblasts. As to the kind of experiment: Centrosome targeting of GFP fusion after transient transfection. Conditions: 2-4 hr after transfection. In kind it is cell-based. Here is the method:
To allow transient expression of a human p80 WD40-GFP fusion protein in HeLa cells, a DNA fragment containing amino acids 1-263 of human p80 katanin was generated by PCR amplification, placing a BamHl site and a Kozak consensus at the predicted translation start and an EcoRI site after the codon for a.a. 263. This BamH1-EcoR1 fragment was ligated into the GFP fusion vector pEGFP-N1 (Clontech).
Both MSU1.1 and Hela cells were grown on 18 mm glass coverslips in Optimem medium (Life Technologies) supplemented with 10% fetal bovine serum, penicillin and streptomycin. Plasmids were transfected using Superfect Reagent (Qiagen) for 2 hr after which coverslips were washed with PBS and placed in fresh culture medium at 37° C. with 5% CO2 for 1-24 hr.
For imaging of GFP-fluorescence and immunofluorescence with the human p80 katanin antibody or with the γ-tubulin antibody, monoclonal GTU88 (Sigma Chemical), cells on coverslips were fixed either in −20° C. methanol or in 0.5×PBS, 3.7% formaldehyde, 75% methanol at 22° C. for 10 min followed by rehydration in TBST. Antibody labelling was carried out in TBST containing 4% BSA. Images were captured with a Nikon Microphot SA microscope, 100× Plan Fluor 1.3 objective, Photometrics Quantix camera and IP Lab Spectrum software (Scanalytics).

Regarding “p80 WD40-GFP: six WD40 repeats of human p80 katanin (a.a. 1-263) appended to N-terminus of green fluorescent protein”, the “localization of green fluorescence” value is “co-localized with γ-tubulin staining”.
